What all share (assay type): biochemical
The target of assay [1] is T1, ces1e (Rattus norvegicus, UniProt Q63108).
T1 sequence (Q63108 19-561): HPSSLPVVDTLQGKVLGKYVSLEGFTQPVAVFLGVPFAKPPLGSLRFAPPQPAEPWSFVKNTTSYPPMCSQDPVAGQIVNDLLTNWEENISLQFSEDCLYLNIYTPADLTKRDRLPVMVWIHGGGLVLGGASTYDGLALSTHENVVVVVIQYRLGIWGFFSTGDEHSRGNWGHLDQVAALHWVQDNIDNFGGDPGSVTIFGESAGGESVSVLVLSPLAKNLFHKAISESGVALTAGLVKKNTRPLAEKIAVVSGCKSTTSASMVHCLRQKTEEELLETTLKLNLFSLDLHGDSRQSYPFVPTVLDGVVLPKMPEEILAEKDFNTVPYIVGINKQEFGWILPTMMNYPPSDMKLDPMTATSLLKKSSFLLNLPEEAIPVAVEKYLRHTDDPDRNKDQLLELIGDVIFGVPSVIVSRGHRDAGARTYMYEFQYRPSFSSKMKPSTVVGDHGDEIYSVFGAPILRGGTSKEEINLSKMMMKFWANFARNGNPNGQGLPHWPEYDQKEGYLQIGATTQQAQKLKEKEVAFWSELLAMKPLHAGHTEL
Kind of assay: p-nitrophenylacetate hydrolysis, absorbance at […] nm. The conditions noted are these: read-out: % inhibition at 10 nM.

For assay [2], the target named is T2, ces1d (Mus musculus, UniProt Q8VCT4).
T2 sequence (Q8VCT4 19-565): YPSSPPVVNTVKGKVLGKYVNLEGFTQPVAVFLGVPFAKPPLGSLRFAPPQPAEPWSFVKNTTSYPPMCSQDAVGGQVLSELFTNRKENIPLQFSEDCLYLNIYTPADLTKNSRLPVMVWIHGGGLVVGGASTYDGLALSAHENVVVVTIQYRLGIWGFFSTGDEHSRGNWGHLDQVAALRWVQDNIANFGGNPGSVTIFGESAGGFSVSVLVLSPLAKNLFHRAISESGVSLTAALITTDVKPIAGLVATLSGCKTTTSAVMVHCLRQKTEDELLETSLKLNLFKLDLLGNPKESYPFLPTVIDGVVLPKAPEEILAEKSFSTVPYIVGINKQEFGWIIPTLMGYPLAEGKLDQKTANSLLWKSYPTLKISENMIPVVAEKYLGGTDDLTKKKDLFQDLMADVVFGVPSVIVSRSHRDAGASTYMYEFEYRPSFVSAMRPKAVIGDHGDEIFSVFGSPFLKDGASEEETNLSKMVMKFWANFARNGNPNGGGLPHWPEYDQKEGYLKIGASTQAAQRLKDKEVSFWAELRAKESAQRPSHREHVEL
The description is as above. The conditions noted are these: read-out: % inhibition at 1 nM.

Assay [3] deals with T3, ces1d (Rattus norvegicus, UniProt P16303).
T3 sequence (P16303 19-565): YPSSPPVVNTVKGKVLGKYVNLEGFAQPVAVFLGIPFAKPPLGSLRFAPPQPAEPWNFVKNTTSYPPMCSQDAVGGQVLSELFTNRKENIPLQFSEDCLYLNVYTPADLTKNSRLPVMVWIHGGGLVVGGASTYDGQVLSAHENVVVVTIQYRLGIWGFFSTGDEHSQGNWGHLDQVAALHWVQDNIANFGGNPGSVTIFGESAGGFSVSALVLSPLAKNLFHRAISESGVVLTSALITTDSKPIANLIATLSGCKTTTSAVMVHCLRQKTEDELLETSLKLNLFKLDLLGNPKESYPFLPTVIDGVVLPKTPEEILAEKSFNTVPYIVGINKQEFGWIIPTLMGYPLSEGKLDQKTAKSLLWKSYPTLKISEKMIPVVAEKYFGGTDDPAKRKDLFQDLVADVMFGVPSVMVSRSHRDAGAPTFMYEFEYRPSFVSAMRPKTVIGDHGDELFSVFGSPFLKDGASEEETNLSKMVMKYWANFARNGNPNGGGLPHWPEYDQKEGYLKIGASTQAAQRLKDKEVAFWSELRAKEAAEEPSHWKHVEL
The description is as above. The conditions noted are these: read-out: % inhibition at 10 nM.

In assay [4] the target is T4, ces2e (Mus musculus, UniProt Q8BK48).
T4 sequence (Q8BK48 27-559): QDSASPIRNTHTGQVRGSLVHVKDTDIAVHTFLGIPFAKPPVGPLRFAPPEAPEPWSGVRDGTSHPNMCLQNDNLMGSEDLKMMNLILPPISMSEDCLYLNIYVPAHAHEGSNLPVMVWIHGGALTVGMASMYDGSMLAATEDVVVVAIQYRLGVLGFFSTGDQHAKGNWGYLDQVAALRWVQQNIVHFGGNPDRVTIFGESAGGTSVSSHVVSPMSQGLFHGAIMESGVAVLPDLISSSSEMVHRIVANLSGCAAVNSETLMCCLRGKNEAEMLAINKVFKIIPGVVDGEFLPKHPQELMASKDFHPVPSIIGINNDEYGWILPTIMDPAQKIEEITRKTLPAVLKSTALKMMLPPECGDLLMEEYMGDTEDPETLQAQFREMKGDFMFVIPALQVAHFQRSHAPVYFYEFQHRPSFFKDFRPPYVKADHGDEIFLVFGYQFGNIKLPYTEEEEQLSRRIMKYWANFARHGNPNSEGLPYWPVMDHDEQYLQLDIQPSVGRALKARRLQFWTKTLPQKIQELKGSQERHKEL
The assay is described as above. The conditions noted are these: read-out: % inhibition at 1 nM.

The target of assay [5] is T5, ces2c (Mus musculus, UniProt Q91WG0).
T5 sequence (Q91WG0 27-561): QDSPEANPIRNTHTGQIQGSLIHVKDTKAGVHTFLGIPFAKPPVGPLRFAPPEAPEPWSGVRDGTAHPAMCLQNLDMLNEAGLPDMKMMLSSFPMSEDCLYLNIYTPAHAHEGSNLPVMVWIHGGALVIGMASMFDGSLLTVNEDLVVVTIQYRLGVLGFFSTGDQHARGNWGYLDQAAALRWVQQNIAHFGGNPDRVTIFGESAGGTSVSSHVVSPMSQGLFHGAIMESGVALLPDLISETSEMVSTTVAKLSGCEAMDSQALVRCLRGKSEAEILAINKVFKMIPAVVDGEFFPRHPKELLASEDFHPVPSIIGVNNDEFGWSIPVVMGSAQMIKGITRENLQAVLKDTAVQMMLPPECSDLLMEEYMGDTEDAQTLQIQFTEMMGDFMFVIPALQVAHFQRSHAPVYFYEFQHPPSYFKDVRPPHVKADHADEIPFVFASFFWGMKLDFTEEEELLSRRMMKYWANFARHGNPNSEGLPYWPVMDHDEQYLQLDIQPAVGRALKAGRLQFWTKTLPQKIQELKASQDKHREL
Described as above. The note with it: read-out: % inhibition at 1 nM.

Assay [6] addresses T6, CES1 (Homo sapiens, UniProt P23141).
T6 sequence (P23141 18-567): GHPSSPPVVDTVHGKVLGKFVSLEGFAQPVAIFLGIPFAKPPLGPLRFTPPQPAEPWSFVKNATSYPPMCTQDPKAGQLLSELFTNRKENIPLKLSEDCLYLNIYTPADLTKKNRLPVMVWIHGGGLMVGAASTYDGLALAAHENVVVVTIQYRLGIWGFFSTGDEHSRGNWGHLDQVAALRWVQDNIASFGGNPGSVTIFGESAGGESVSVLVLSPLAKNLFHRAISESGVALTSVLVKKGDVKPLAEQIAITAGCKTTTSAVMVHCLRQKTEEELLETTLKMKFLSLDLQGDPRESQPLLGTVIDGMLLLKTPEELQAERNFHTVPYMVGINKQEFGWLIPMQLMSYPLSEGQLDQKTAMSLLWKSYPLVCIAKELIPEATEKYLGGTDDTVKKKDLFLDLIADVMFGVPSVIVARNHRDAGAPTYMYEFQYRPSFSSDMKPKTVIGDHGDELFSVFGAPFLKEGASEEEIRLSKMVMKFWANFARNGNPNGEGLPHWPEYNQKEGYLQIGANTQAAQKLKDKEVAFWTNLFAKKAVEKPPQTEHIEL
The assay is described as above. The note with it: read-out: % inhibition at 100 nM.

For assay [7], the target named is T7, CES2 (Homo sapiens, UniProt O00748).
T7 sequence (O00748 27-559): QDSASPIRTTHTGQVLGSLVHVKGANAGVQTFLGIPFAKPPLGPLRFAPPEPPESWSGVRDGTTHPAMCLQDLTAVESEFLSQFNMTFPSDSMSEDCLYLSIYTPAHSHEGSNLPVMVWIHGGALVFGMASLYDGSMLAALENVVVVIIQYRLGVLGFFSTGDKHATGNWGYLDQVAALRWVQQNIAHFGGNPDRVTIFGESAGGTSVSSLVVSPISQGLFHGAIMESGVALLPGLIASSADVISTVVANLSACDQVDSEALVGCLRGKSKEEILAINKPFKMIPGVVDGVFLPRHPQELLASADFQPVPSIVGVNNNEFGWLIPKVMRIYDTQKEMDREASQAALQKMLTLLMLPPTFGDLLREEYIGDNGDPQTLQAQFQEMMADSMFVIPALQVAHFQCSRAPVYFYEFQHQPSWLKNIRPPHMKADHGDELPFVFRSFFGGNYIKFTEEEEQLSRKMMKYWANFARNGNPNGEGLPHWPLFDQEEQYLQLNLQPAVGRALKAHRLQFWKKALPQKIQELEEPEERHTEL
Kind of assay: hydrolysis, absorbance at […] nm. The conditions noted are these: 293T lysate, potassium phosphate pH 7.4.

Assay [8] has as its target T2, ces1d. Kind of assay: hydrolysis, absorbance at […] nm. The conditions noted are these: 293T lysate, potassium phosphate pH 7.4.
The target in assay [9] is T4, ces2e. Kind of assay: hydrolysis, absorbance at […] nm. The conditions noted are these: 293T lysate, potassium phosphate pH 7.4.
Assay [10] concerns the target T1, ces1e. The assay is described as follows: hydrolysis, absorbance at […] nm. The note with it: 293T lysate, potassium phosphate pH 7.4.
Assay [11] addresses T3, ces1d. The assay is described as follows: hydrolysis, absorbance at […] nm. The note with it: 293T lysate, potassium phosphate pH 7.4.
Assay [12] addresses T5, ces2c. Kind of assay: hydrolysis, absorbance at […] nm. The conditions noted are these: 293T lysate, potassium phosphate pH 7.4.
The target in assay [13] is T6, CES1. The assay is described as follows: hydrolysis, absorbance at […] nm. The note with it: 293T lysate, potassium phosphate pH 7.4.

What is called inhibition is how much of the control response was suppressed. Take `CCCCCCCCCCC[C@@H](C[C@@H]1OC(=O)[C@H]1CCCCCC)OC(=O)[C@H](CC(C)C)NC=O` [orlistat]: the inhibition at 0.01 µM in assay [1] and in [3] was 20% in each case. Also, the inhibition at 0.001 µM in assay [2] was 12%; in assay [4] it was 55%; in assay [5] it was 90%. The inhibition at 0.1 µM in assay [6] is about 30%.

Turning to `CC(=O)Oc1ccc([N+](=O)[O-])cc1` [p-nitrophenylacetate], the “hydrolysis, absorbance at 400 nm” value in [7] was “Inhibition of p-nitrophenylacetate hydrolysis of recombinant carboxylesterases from human (A), mouse (B) or rat”; in assay [8] it was “Inhibition of p-nitrophenylacetate hydrolysis of recombinant carboxylesterases from human (A), mouse (B) or rat”; in [9], “Inhibition of p-nitrophenylacetate hydrolysis of recombinant carboxylesterases from human (A), mouse (B) or rat”; in [10] it was “Inhibition of p-nitrophenylacetate hydrolysis of recombinant carboxylesterases from human (A), mouse (B) or rat”; in assay [11] it was “Inhibition of p-nitrophenylacetate hydrolysis of recombinant carboxylesterases from human (A), mouse (B) or rat”; in [12] it was “Inhibition of p-nitrophenylacetate hydrolysis of recombinant carboxylesterases from human (A), mouse (B) or rat”. Besides, the “hydrolysis, absorbance at 400 nm” value in [13] is reported as “Inhibition of p-nitrophenylacetate hydrolysis of recombinant carboxylesterases from human (A), mouse (B) or rat”.

Values taken from paper PMC4102434 (Biochemical pharmacology, 2012).
